Measured values from article PMC4728560 (Scientific Reports, 2016).
Each block holds one compound with its values, some of them ahead of it.

Columns and labels:
[1] = target: T1, Bcl-xL (Homo sapiens, UniProt Q07817, DEL27-82); experiment: Heterocomplex formation with Bcl-xL (native MS, SEC-MALS, gel filtration); type: binding; settings: native MS: Bcl-xL(Δ27-81ΔCT), equimolar 100 μM, 30 °C, checked at 5 μM (for TCTP-R21A)
T1 construct: one containing the fragment 1-26, and the other the fragment 81-209; 6His (N, cleaved yes); made in house; host or cells: Escherichia coli BL21 (DE3) pRARE2
T1 sequence (Q07817 with tags, fused parts or gaps DEL27-82): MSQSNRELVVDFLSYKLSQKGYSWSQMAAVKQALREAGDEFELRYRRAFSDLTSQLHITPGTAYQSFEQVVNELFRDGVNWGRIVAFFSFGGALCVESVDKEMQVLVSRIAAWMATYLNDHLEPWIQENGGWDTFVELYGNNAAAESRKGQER
Protocol: When not specified, proteins tested for binding experiments were mixed at 100 μM, dialyzed against 10 mM CHES pH 9, 50 mM NaCl, 1 mM DTT or TCEP, depending on the analysis, and heated overnight at 30 °C.
For binding experiments, 100 to 200PL of protein mixture were loaded on a size exclusion chromatography (S200, GE Healthcare) column, while elution profiles were measured by UV absorption at 280 nm.
SEC-MALS experiments were performed on a multi-angle light scattering detector (miniDAWN TREOS, Wyatt Technologies) coupled in-line with SEC and an interferometric refractometer (Optilab T-rEX, Wyatt Technologies). See Supplementary Information for full details.
Prior to any mass spectrometry experiment, protein buffer was exchanged twice against a 50 mM ammonium acetate (NH4Ac) solution at pH 9.0 using microcentrifuge gel filtration columns (Zeba 0.5 ml, Thermo Scientific, Rockford, IL). Protein concentration was determined spectrophotometrically. […]
Supplementary Table 1. Measured molecular weights in denaturing conditions Sample Theoretical molecular Measured molecular Associated mass (Da) mass (Da) species […]
Gel filtration. For binding experiments, 100 to 200PL of protein mixture were loaded on a size exclusion chromatography (S200, GE Healthcare) column, while elution profiles were measured by UV absorption at 280nm. […]

[2] = tested on: Bcl-xL; experiment: In cellulo BRET between Luciferase-fused TCTP and YFP-fused Bcl-xL; type: cell-based; settings: MCF-7 cells; 16 h treatment
Excerpt: See Supplementary Information for full details.
Twenty-four hours later, cells
Protein expression and purification

[3] = tested on: thymocytes from TCTP^+/− mice; experiment: Complementation (viability) of γ-irradiated TCTP+/− thymocytes; type: cell-based, mouse; settings: γ-irradiation 2.5 Gy, overnight culture, 0 to 1000 nM
Excerpt: Figure 4 Molecular/functional analysis of the h1 (P1) subregion of BH3-TCTP. […]
Peptides used for in vitro assays:
WT-TCTP (11-31): […]
R21A-TCTP (11-31): […]
Hybrid Bax/TCTP: […]
Peptides used for in vivo assays:
WT-TCTP (1-31) : […]
Hybrid Bax-TCTP: […]
TCTP-FLAG peptides used for in vivo assays:
WT-TCTP (1-31)-FLAG : […] DYKDDDDK-OH
TCTP-Bax-TCTP-FLAG: […]-OH […]
subdomain in the BH3 motif is underlined. Peptides were purchased from Smartox […]
Complementation and transduction experiments
In order to complement the haploinsufficient TCTP+/- mice with exogenous TCTP, we took advantage of the fact that the first N-terminal fragment of TCTP functions as a Protein Transduction Domain (PTD), enabling TCTP to penetrate into the cell by a mechanism hitherto […]
not well understood23,27-29. […]
of γ irradiation) and cultured, at a concentration of 10^7 cells/ml, overnight in the presence of […]
20) at concentrations ranging from 0-1000nM. For the transduction assays using WT-TCTP- […]
concentrations were 10 microM, 50 microM and 100 microM.
γ-irradiated thymocytes were fixed by adding 500ul of PFA 4% and incubated for 20 min at room temperature. The cells were washed twice with PBS and permeabilized for 10 min with 0.2% triton X-100 in PBS at room temp. The cells were washed twice with PBS. Proteins were blocked in Blocking buffer (1% BSA 0.5% Tween in PBS) 1h at room temperature. The primary antibody was added with blocking buffer and placed in a rotating wheel overnight in a cold room.
Cells were then washed 3 times with PBS and incubated with secondary antibody with blocking buffer 1h at room temperature. The cells were washed 3 times with PBS and suspended in 200 µL PBS and used for Flow Cytometry or further used for immunohistochemistry: 5 µl of each sample were mixed with 5 µl of ProLong® Gold antifade reagent (Life Technologies) and visualized, using the IX73 inverted fluorescence microscope and the cellSens™ Dimension […]
FACS analysis (BD Accuri™ C6 Cytometer (BD Biosciences) of incorporation of exogenous

[4] = tested on: Bax mediated cytochrome c release, Bcl-xL; experiment: Cytochrome c release from purified mitochondria by tBid and Bax in the presence of Bcl-xL; type: biochemical; settings: mouse liver mitochondria; 5 nM tBid, 50 nM Bax, 300 nM Bcl-xL; 15 min, 30 °C; Western blot
Protocol: (A–E) in vitro reconstitution assay on liposome permeabilization. […] The treated Bcl-xL was then added to reactions containing ANTS-DPX liposomes, 100 nM Bax and 20 nM of either cBid (A,B) or cBidmt1(C,D) at pH 7. Liposome permeabilization was quantified by fluorescence after 5h incubation at 37 °C where 100% release was defined as the fluorescence change due to lipid solubilization with 1% Triton X-100. […] Error bars, std. dev. n = 3. To compare between the TCTP treated groups and the Control group statistically, two-way ANOVA test was performed for (A–D) and one-way ANOVA test was performed for (E). […] Colored asterisks above each data point indicate the statistical significance (*p < 0.05; **p < 0.01, no asterisks if p ≥ 0.05). A complete statistical analysis is provided in Supplementary Table 2–4. […] Cyto c extra-mito: in the supernatant, analysed by Western blot. […]
to highlight the pre-incubation), pH 9, 30 C° before being added to the mitochondria at their final concentrations. […] Cytochrome c was detected in the mitochondrial fraction (Cyto c intra-mito) or in the supernatant (Cyto c extra-mito) by Western blot analysis. […]
Cytochrome c release assay. […] Mitochondrial pellets and the corresponding supernatant fractions were subjected to SDS-polyacrylamide gel electrophoresis and analyzed by Western blotting for cytochrome c.

[5] = target: T1, Bcl-xL; experiment: Isothermal Titration Calorimetry, peptides and Bcl-xL; type: binding; settings: ITC, 30 °C, 50 mM ammonium bicarbonate pH 9, TCTP-BH3-R21A 1.26 mM (Fig. 1B)
Protocol: In red, the conserved hydrophobic residues of the BH3 domain (named h1 (P1), h2 (P2), h3 (P3) and h4 (P4)). In green, the GD signature of BH3 domains. In blue, the conserved charged residues. […] Each experiment was carried out at 30 °C in 50 mM ammonium bicarbonate pH 9.
Titrations were done by isothermal titration calorimetry (ITC) assays using an ITC200 calorimeter from GE-Microcal. See Supplementary Information for full details. […]
hybrid-FLAG peptides, rabbit anti-FLAG (Sigma) and anti-rabbit-FITC (Abcam) were used.
Isothermal Titration Calorimetry experiments
Titrations were done by isothermal titration calorimetry (ITC) assays using an ITC200 calorimeter from GE-Microcal. Bcl-xL was used at 0.065 mM in 50mM bicarbonate ammonium […]
pH 9. […] Titrations were carried out at 30°C. Data were analyzed using Microcal Origin software provided by the ITC manufacturer (GE-Microcal).
High-throughput crystallization screening was performed using a Mosquito liquid transfer robot (TTP Labtech) and the sitting-drop vapor diffusion method. Crystals were obtained at 20°C by mixing 0.2μL of reservoir solution (100mM Pipes pH 7, 1.5M Tris-sodium citrate) with 0.2μL of […]
ammonium bicarbonate pH 9.3 and by equilibrating the mixture against 40μl of reservoir

inhibition of BRET signals between TCTP and Bcl-xL [2]: significantly inhibited
Compound: CN(C)CC[C@H](CSc1ccccc1)Nc1ccc(S(=O)(=O)NC(=O)c2ccc(N3CCN(Cc4ccccc4-c4ccc(Cl)cc4)CC3)cc2)cc1[N+](=O)[O-] [ABT-737, reference compound]
complex formation with Bcl-xL [1]: abrogated formation of the TCTP/Bcl-xL complexes

Compound: MIIYRDLISHDEMFSDIYKIREIADGLCLEV [TCTP1–31]
rescue of TCTP+/− haploinsufficient phenotype / anti-apoptotic function [3]: rescue completely the TCTP^+/− haploinsufficient phenotype

Compound: MIIYRDLISHDEMFSDIYKI [TCTP1–20, truncated TCTP peptide]
potentiation of Bcl-xL (cytochrome c release) [4]: do not potentiate Bcl-xL

binding to Bcl-xL [5]: does not bind to Bcl-xL
Compound: DEMFSDIYKIAEIADGLCLEV [TCTP11–31-R21A, R21A mutant of TCTP11–31 peptide]

Compound: MIIYRDLISHDEMKKLSECIREIADGLCLEV [hybrid mutant]
rescue of TCTP+/− haploinsufficient phenotype / anti-apoptotic function [3]: not able anymore to rescue the haploinsufficient phenotype | rescue of TCTP+/− haploinsufficient phenotype / anti-apoptotic function ([3]; listed as hybrid Bax(h1)-TCTP): completely abrogated its anti-apoptotic function
